# Reference: patent US8791102B2, “Acetanilide sphingosine-1-phosphate receptor antagonists” (Exelixis, Inc., priority 2008, dated 2014)
# Target: T1, human S1P1 receptors (Homo sapiens, UniProt P21453)
# T1 construct: host or cells: HEK293
# Experiment: S1P1R antagonist assay (fluorescent membrane potential dye, cAMP readout)
# Type: cell-based
# Settings: HEK293 cells expressing human S1P1 receptors and CNG channel; 500 nM NECA; S1P1R agonist 10 nM; 90 minutes; read-out: EC50 or IC50 value
# T1 sequence (P21453 whole entry): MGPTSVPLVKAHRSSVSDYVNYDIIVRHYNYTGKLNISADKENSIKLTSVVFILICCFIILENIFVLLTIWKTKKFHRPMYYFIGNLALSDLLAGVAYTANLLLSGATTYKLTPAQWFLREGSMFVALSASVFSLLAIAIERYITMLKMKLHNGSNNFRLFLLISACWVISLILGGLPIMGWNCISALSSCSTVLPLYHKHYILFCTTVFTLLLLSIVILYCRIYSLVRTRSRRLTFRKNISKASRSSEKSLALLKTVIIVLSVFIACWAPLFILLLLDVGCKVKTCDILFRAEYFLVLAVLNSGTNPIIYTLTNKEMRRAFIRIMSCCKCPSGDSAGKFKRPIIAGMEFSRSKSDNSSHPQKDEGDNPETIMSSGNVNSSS
row,Compound,IC50 [nM]
1,"O=C(Cc1cccc(OC(F)(F)F)c1)N[C@@H](COCc1ccccc1)C(=O)Nc1ccc(Oc2ccc(F)cc2)cc1 [Compound 102, (S)-3-(benzyloxy)-N-(4-(4-fluorophenoxy)phenyl)-2-(2-(3-(trifluoromethoxy)phenyl)acetamido)propanamide]",> 1000
2,"O=C(CCCCc1ccccc1)N[C@@H](COCc1ccccc1)C(=O)Nc1ccc(Oc2ccc(F)cc2)cc1 [Compound 104, (S)—N-(3-(benzyloxy)-1-(4-(4-fluorophenoxy)phenylamino)-1-oxopropan-2-yl)-5-phenylpentanamide]",> 1000
3,"O=C(CN1CCC(N2CCOCC2)CC1)N[C@@H](COCc1ccccc1)C(=O)Nc1ccc(Oc2ccc(F)cc2)cc1 [Compound 105, (S)-3-(benzyloxy)-N-(4-(4-fluorophenoxy)phenyl)-2-(2-(4-morpholinopiperidin-1-yl)acetamido)propanamide]",> 1000
4,"CCN(CC)C1CCN(CC(=O)N[C@@H](COCc2ccccc2)C(=O)Nc2ccc(Oc3ccc(F)cc3)cc2)C1 (stereo partly drawn) [Compound 109, (2S)-3-(benzyloxy)-2-(2-(3-(diethylamino)pyrrolidin-1-yl)acetamido)-N-(4-(4-fluorophenoxy)phenyl)propanamide]",> 1000
5,"O=C(CN1CCN(CC2CCCO2)CC1)N[C@@H](COCc1ccccc1)C(=O)Nc1ccc(Oc2ccc(F)cc2)cc1 (stereo partly drawn) [Compound 110, (2S)-3-(benzyloxy)-N-(4-(4-fluorophenoxy)phenyl)-2-(2-(4-((tetrahydrofuran-2-yl)methyl)piperazin-1-yl)acetamido)propanamide]",> 1000
6,"CC(C)N1CCN(CC(=O)N[C@@H](COCc2ccccc2)C(=O)Nc2ccc(Oc3ccc(F)cc3)cc2)CC1 [Compound 111, (S)-3-(benzyloxy)-N-(4-(4-fluorophenoxy)phenyl)-2-(2-(4-isopropylpiperazin-1-yl)acetamido)propanamide]",> 1000
7,"O=C(CN1CCN(c2ncccc2C(F)(F)F)CC1)N[C@@H](COCc1ccccc1)C(=O)Nc1ccc(Oc2ccc(F)cc2)cc1 [Compound 112, (S)-3-(benzyloxy)-N-(4-(4-fluorophenoxy)phenyl)-2-(2-(4-(3-(trifluoromethyl)pyridin-2-yl)piperazin-1-yl)acetamido)propanamide]",> 1000
8,"CCN1CCN(CC(=O)N[C@@H](COCc2ccccc2)C(=O)Nc2ccc(Oc3ccc(F)cc3)cc2)CC1 [Compound 114, (S)-3-(benzyloxy)-2-(2-(4-ethylpiperazin-1-yl)acetamido)-N-(4-(4-fluorophenoxy)phenyl)propanamide]",> 1000
9,"O=C(CN1CCN(c2ccccn2)CC1)N[C@@H](COCc1ccccc1)C(=O)Nc1ccc(Oc2ccc(F)cc2)cc1 [Compound 126, (S)-3-(benzyloxy)-N-(4-(4-fluorophenoxy)phenyl)-2-(2-(4-(pyridin-2-yl)piperazin-1-yl)acetamido)propanamide]",> 1000
10,"O=C(CN1CCN(c2ccccc2F)CC1)N[C@@H](COCc1ccccc1)C(=O)Nc1ccc(Oc2ccc(F)cc2)cc1 [Compound 127, (S)-3-(benzyloxy)-N-(4-(4-fluorophenoxy)phenyl)-2-(2-(4-(2-fluorophenyl)piperazin-1-yl)acetamido)propanamide]",> 1000
11,"O=C(CN1CCCCCC1)N[C@@H](COCc1ccccc1)C(=O)Nc1ccc(Oc2ccc(F)cc2)cc1 [Compound 128, (S)-2-(2-(azepan-1-yl)acetamido)-3-(benzyloxy)-N-(4-(4-fluorophenoxy)phenyl)propanamide]",> 1000
12,"CC1CCN(CC(=O)N[C@@H](COCc2ccccc2)C(=O)Nc2ccc(Oc3ccc(F)cc3)cc2)CC1 [Compound 130, (S)-3-(benzyloxy)-N-(4-(4-fluorophenoxy)phenyl)-2-(2-(4-methylpiperidin-1-yl)acetamido)propanamide]",> 1000
13,"O=C(Cn1cncn1)N[C@@H](COCc1ccc(F)cc1)C(=O)Nc1ccc(Oc2ccc(F)cc2)cc1 [Compound 135, (S)-2-(2-(1H-1,2,4-triazol-1-yl)acetamido)-3-(4-fluorobenzyloxy)-N-(4-(4-fluorophenoxy)phenyl)propanamide]",≤ 300
14,"O=C(CCl)N[C@@H](COCc1ccccc1)C(=O)Nc1ccc(Oc2ccc(F)cc2)cc1 [Compound 136, (S)-3-(benzyloxy)-2-(2-chloroacetamido)-N-(4-(4-fluorophenoxy)phenyl)propanamide]",≤ 300

# More lines, now with the values ahead:
row,IC50 [nM],Compound
1,≤ 300,"COCCN1CCN(CC(=O)N2C[C@H](Cc3ccccc3)C[C@H]2C(=O)Nc2ccc(Oc3ccc(F)cc3)cc2)CC1 [Compound 100, (2S,4R)-4-benzyl-N-(4-(4-fluorophenoxy)phenyl)-1-(2-(4-(2-methoxyethyl)piperazin-1-yl)acetyl)pyrrolidine-2-carboxamide]"
2,≤ 300,"O=C(Nc1ccc(Oc2ccc(F)cc2)cc1)[C@@H]1C[C@@H](Cc2ccccc2F)CN1C(=O)Cn1cncn1 [Compound 106, (2S,4R)-1-(2-(1H-1,2,4-triazol-1-yl)acetyl)-4-(2-fluorobenzyl)-N-(4-(4-fluorophenoxy)phenyl)pyrrolidine-2-carboxamide]"
3,≤ 300,"O=C(Nc1ccc(Oc2ccc(F)cc2)cc1)[C@@H]1C[C@@H](Cc2ccccc2F)CN1C(=O)Cn1nccn1 [Compound 107, (2S,4R)-1-(2-(2H-1,2,3-triazol-2-yl)acetyl)-4-(2-fluorobenzyl)-N-(4-(4-fluorophenoxy)phenyl)pyrrolidine-2-carboxamide]"
4,≤ 300,"O=C(Nc1ccc(Oc2ccc(F)cc2)cc1)[C@@H]1C[C@@H](Cc2c(F)cc(F)cc2F)CN1C(=O)Cn1cncn1 [Compound 108, (2S,4R)-1-(2-(1H-1,2,4-triazol-1-yl)acetyl)-N-(4-(4-fluorophenoxy)phenyl)-4-(2,4,6-trifluorobenzyl)pyrrolidine-2-carboxamide]"
5,≤ 300,"O=C(Nc1ccc(Oc2ccc(F)cc2)cc1)[C@@H]1C[C@@H](Cc2ccccc2)CN1C(=O)CN1CCOCC1 [Compound 116, (2S,4R)-4-benzyl-N-(4-(4-fluorophenoxy)phenyl)-1-(2-morpholinoacetyl)pyrrolidine-2-carboxamide]"
6,≤ 300,"O=C(Nc1ccc(Oc2ccc(F)cc2)cc1)[C@@H]1C[C@@H](Cc2ccccc2)CN1C(=O)Cc1cccs1 [Compound 117, (2S,4R)-4-benzyl-N-(4-(4-fluorophenoxy)phenyl)-1-(2-(thien-2-yl)acetyl)pyrrolidine-2-carboxamide]"
7,≤ 300,"CC(O)CC(=O)N1C[C@H](Cc2ccccc2)C[C@H]1C(=O)Nc1ccc(Oc2ccc(F)cc2)cc1 (stereo partly drawn) [Compound 118, (2S,4R)-4-benzyl-N-(4-(4-fluorophenoxy)phenyl)-1-(3-hydroxybutanoyl)pyrrolidine-2-carboxamide]"
8,≤ 300,"O=C(Nc1ccc(Oc2ccc(F)cc2)cc1)[C@@H]1C[C@@H](Cc2ccccc2)CN1C(=O)Cc1c(Cl)cccc1Cl [Compound 119, (2S,4R)-4-benzyl-1-(2-(2,6-dichlorophenyl)acetyl)-N-(4-(4-fluorophenoxy)phenyl)pyrrolidine-2-carboxamide]"
9,≤ 300,"O=C(Nc1ccc(Oc2ccc(F)cc2)cc1)[C@@H]1C[C@@H](Cc2ccccc2)CN1C(=O)CO [Compound 120, (2S,4R)-4-benzyl-N-(4-(4-fluorophenoxy)phenyl)-1-(2-hydroxyacetyl)pyrrolidine-2-carboxamide]"
10,≤ 300,"CCOCC(=O)N1C[C@H](Cc2ccccc2)C[C@H]1C(=O)Nc1ccc(Oc2ccc(F)cc2)cc1 [Compound 121, (2S,4R)-4-benzyl-1-(2-ethoxyacetyl)-N-(4-(4-fluorophenoxy)phenyl)pyrrolidine-2-carboxamide]"
11,≤ 300,"COCC(=O)N1C[C@H](Cc2ccccc2)C[C@H]1C(=O)Nc1ccc(Oc2ccc(F)cc2)cc1 [Compound 122, (2S,4R)-4-benzyl-N-(4-(4-fluorophenoxy)phenyl)-1-(2-methoxyacetyl)pyrrolidine-2-carboxamide]"
12,≤ 300,"CC(=O)CCC(=O)N1C[C@H](Cc2ccccc2)C[C@H]1C(=O)Nc1ccc(Oc2ccc(F)cc2)cc1 [Compound 123, (2S,4R)-4-benzyl-N-(4-(4-fluorophenoxy)phenyl)-1-(4-oxopentanoyl)pyrrolidine-2-carboxamide]"
13,≤ 300,"O=C(CCC(=O)N1C[C@H](Cc2ccccc2)C[C@H]1C(=O)Nc1ccc(Oc2ccc(F)cc2)cc1)c1ccccc1 [Compound 124, (2S,4R)-4-benzyl-N-(4-(4-fluorophenoxy)phenyl)-1-(4-oxo-4-phenylbutanoyl)pyrrolidine-2-carboxamide]"
14,≤ 300,"COC(=O)CCC(=O)N1C[C@H](Cc2ccccc2)C[C@H]1C(=O)Nc1ccc(Oc2ccc(F)cc2)cc1 [Compound 125, methyl 4-((2S,4R)-4-benzyl-2-(4-(4-fluorophenoxy)phenylcarbamoyl)pyrrolidin-1-yl)-4-oxobutanoate]"
15,≤ 300,"N#CCC(=O)N1C[C@H](Cc2ccccc2)C[C@H]1C(=O)Nc1ccc(Oc2ccc(F)cc2)cc1 [Compound 129, (2S,4R)-4-benzyl-1-(2-cyanoacetyl)-N-(4-(4-fluorophenoxy)phenyl)pyrrolidine-2-carboxamide]"
16,≤ 300,"O=C(Cc1c[nH]cn1)N[C@@H](COCc1ccccc1)C(=O)Nc1ccc(Oc2ccc(F)cc2)cc1 [Compound 131, (S)-2-(2-(1H-imidazol-5-yl)acetamido)-3-benzyloxy-N-(4-(4-fluorophenoxy)phenyl)propanamide]"
17,≤ 300,"O=C(Cc1c[nH]cn1)N[C@@H](COCc1ccc(F)cc1)C(=O)Nc1ccc(Oc2ccc(Cl)cc2)cc1 [Compound 132, (S)-2-(2-(1H-imidazol-5-yl)acetamido)-3-(4-fluorobenzyloxy)-N-(4-(4-chlorophenoxy)phenyl)propanamide]"
18,≤ 300,"O=C(Cc1c[nH]cn1)N[C@@H](COCc1ccc(F)cc1)C(=O)Nc1ccc(Oc2ccc(F)cc2)cc1 [Compound 133, (S)-2-(2-(1H-imidazol-5-yl)acetamido)-3-(4-fluorobenzyloxy)-N-(4-(4-fluorophenoxy)phenyl)propanamide]"
19,≤ 300,"O=C(Cn1ccnc1)N[C@@H](COCc1ccccc1)C(=O)Nc1ccc(Oc2ccc(F)cc2)cc1 [Compound 134, (S)-2-(2-(1H-imidazol-1-yl)acetamido)-3-benzyloxy-N-(4-(4-fluorophenoxy)phenyl)propanamide]"
